The mortality is the share of the test organisms that died.

Consider 45 molecules from patent US4331670A (priority 1979, dated 1982).

Assay [1] deals with Pyricularia orzae. The assay can be described thus: whole plant or invertebrate. The note with it: in Oryza sativa, 120 h, read-out: Protective value. In kind it is in vivo, Pyricularia orzae (rice plant, Chukyo Asahi).
Assay [2] has as its system Rhizoctonia solani. The assay can be described thus: whole plant or invertebrate. In kind it is in vivo, Rhizoctonia solani (rice plant, Chukyo Asahi). To be noted: in Oryza sativa, 120 h, read-out: Preventive value.
Assay [3] concerns Botrytis cinerea. Briefly: Test 9: protective value on cucumber inoculated with Botrytis cinerea. The note with it: 72 h, 250 ppm, 10 ml sprayed, lesion length three days after inoculation. The format is in vivo, Botrytis cinerea (cucumber plant, Suyo). As for the experimental part: In each unglazed pot having a diameter of 9 cm, cucumber plant (Suyo) was cultured. At one leaf stage, 10 ml. of each solution of each active ingredient having a concentration of 250 ppm was sprayed by a spray gun. After maintaining the pot in a green-house at 24° to 25° C. for one day, a disc (punched agar disc) obtained by culturing Botrytis cinerea on a potato-glucose-agar medium (PDA medium) was put on the leaf of cucumber to inoculate them. Three days after the inoculation, lengths of lesions were measured and each protective value was calculated as Test 2.
In accordance with the test, except the concentration of the active ingredient was decreased, the comparative tests of Compound No. 7 and Reference compound were carried out.

Assay [4] concerns Plutella xylostella. Briefly: Test 11: mortality of larvae of Plutella xylostella on treated cabbage leaf. The format is in vivo. The note with it: foliar, 192 h, leaf dipped, emulsifiable concentrate Composition No. 3, eight days, read-out: Percent mortality. The text has this: Each emulsifiable concentrate of each active ingredient as Composition No. 3 was dispersed in water at a concentration of 800 ppm. Each leaf of cabbage was dipped into each emulsion for about 10 seconds and taken up and dried in air.
A wet filter paper was put in each Petri dish (diameter of 9 cm), and each treated leaf was put on the filter paper. Larvae of Plutella xylostella at 2nd to 3rd instar were charged and the dish was covered with a cap and kept in a constant temperature chamber with lighting at 28° C. Eight days after the charge, mortality was measured and each percent mortality was calculated.

Consider `O=[N+]([O-])c1cc(C(F)(F)F)cc([N+](=O)[O-])c1Nc1ccc(Cl)cn1` [Compound No. 1], for which the pest or weed control at 100 ppm in assay [1] was determined as 91%. As for `O=[N+]([O-])c1cc(C(F)(F)F)c(Cl)c([N+](=O)[O-])c1Nc1cc(Cl)cc(Cl)n1` [Compound No. 6], the pest or weed control at 100 ppm in assay [2] amounted to 100%. Turning to `COc1ccc(Nc2c([N+](=O)[O-])cc(C(F)(F)F)cc2[N+](=O)[O-])c(OC)n1` [Compound No. 25], in assay [1], the pest or weed control at 100 ppm stood at 85%. As to `O=[N+]([O-])c1cc(C(F)(F)F)c(Cl)c([N+](=O)[O-])c1Nc1ccc(Cl)cn1` [compound 5], the pest or weed control at 100 ppm in assay [1] was 100%. For the molecule `Cc1nc(Nc2c([N+](=O)[O-])cc(C(F)(F)F)cc2[N+](=O)[O-])c(Cl)c(C)c1Cl` [compound 9], the pest or weed control at 100 ppm in assay [1] worked out at 83%. The same measure, in the same setting: to `Cc1cc(Nc2c([N+](=O)[O-])cc(C(F)(F)F)c(Cl)c2[N+](=O)[O-])ncc1Br` [compound 10] belongs 86%. The same measure, in the same setting: in the case of `Cc1nc(Nc2c([N+](=O)[O-])cc(C(F)(F)F)c(Cl)c2[N+](=O)[O-])c(Cl)c(C)c1Cl` [compound 11] it was 84%; in that of `Cc1c(Cl)cnc(Nc2c([N+](=O)[O-])cc(C(F)(F)F)cc2[N+](=O)[O-])c1Cl` [compound 13], 92%. The molecule `O=[N+]([O-])c1cc(C(F)(F)F)c(Cl)c([N+](=O)[O-])c1Nc1ncc(Br)cc1Br` [compound 17] showed a pest or weed control at 250 ppm in assay [3] of 92%. In assay [1], the pest or weed control at 100 ppm amounted to 100%. With `CCc1nc(Nc2c([N+](=O)[O-])cc(C(F)(F)F)c(Cl)c2[N+](=O)[O-])ccc1Br` [compound 23], in assay [3], the pest or weed control at 250 ppm worked out at 81%. Further, the pest or weed control at 100 ppm in assay [1] was determined as 93%.

In the case of `CCc1nc(Nc2c([N+](=O)[O-])cc(C(F)(F)F)cc2[N+](=O)[O-])ccc1Br` [compound 24], the pest or weed control at 100 ppm in assay [1] turned out to be 90%. The same measure, in the same setting: to `O=[N+]([O-])c1cc(C(F)(F)F)c(F)c([N+](=O)[O-])c1Nc1ncc(C(F)(F)F)cc1Cl` [compound 38] belongs 100%.

`CC(C)Oc1c(C(F)(F)F)cc([N+](=O)[O-])c(Nc2ncc(C(F)(F)F)cc2Cl)c1[N+](=O)[O-]` [compound 42]: in assay [4], the mortality at 800 ppm was 100%. Also, the pest or weed control at 100 ppm in assay [1] and in assay [2] was 95% throughout. In the case of `CCCCOc1c(C(F)(F)F)cc([N+](=O)[O-])c(Nc2ncc(C(F)(F)F)cc2Cl)c1[N+](=O)[O-]` [compound 43], in assay [4], the mortality at 800 ppm amounted to 100%. For the same molecule, the pest or weed control at 100 ppm in assay [1] and in assay [2] was 95% each time. Turning to `CC(C)COc1c(C(F)(F)F)cc([N+](=O)[O-])c(Nc2ncc(C(F)(F)F)cc2Cl)c1[N+](=O)[O-]` [compound 44], the pest or weed control at 100 ppm in assay [1] and in assay [2] was 95% in each case. Turning to `CSc1c(C(F)(F)F)cc([N+](=O)[O-])c(Nc2ncc(C(F)(F)F)cc2Cl)c1[N+](=O)[O-]` [compound 45], the pest or weed control at 100 ppm in assay [1] and in assay [2] was 100% throughout. `CCSc1c(C(F)(F)F)cc([N+](=O)[O-])c(Nc2ncc(C(F)(F)F)cc2Cl)c1[N+](=O)[O-]` [compound 46]: in assay [1], the pest or weed control at 100 ppm came out at 95%. On to `O=[N+]([O-])c1cc(C(F)(F)F)c(O)c([N+](=O)[O-])c1Nc1ncc(C(F)(F)F)cc1Cl` [compound 47], for which the pest or weed control at 100 ppm in assay [1] and in assay [2] was 95% each time.

Regarding `O=[N+]([O-])c1cc(C(F)(F)F)c(Oc2ccccc2O)c([N+](=O)[O-])c1Nc1ncc(C(F)(F)F)cc1Cl` [compound 48], the pest or weed control at 250 ppm in assay [3] was found to be 100%. For the same molecule, the pest or weed control at 100 ppm in assay [2] came out at 100%. In assay [3], `O=[N+]([O-])c1cc(C(F)(F)F)c(Oc2cccc(O)c2)c([N+](=O)[O-])c1Nc1ncc(C(F)(F)F)cc1Cl` [compound 50] came in with a pest or weed control at 250 ppm of 100%. Also, the pest or weed control at 100 ppm in assay [2] turned out to be 100%. For `O=[N+]([O-])c1cc([N+](=O)[O-])c(Nc2ccc(I)cn2)c(C(F)(F)F)c1` [compound 53], the mortality at 800 ppm in assay [4] is 100%. On the same count and under the same terms, in the case of `O=[N+]([O-])c1cc([N+](=O)[O-])c(Nc2cccnc2Cl)c(C(F)(F)F)c1` [compound 55] it was 100%; in that of `Cc1ccnc(Nc2c([N+](=O)[O-])cc([N+](=O)[O-])cc2C(F)(F)F)c1` [compound 56], 100%; in that of `O=[N+]([O-])c1cc([N+](=O)[O-])c(Nc2ccc(C(F)(F)F)cn2)c(C(F)(F)F)c1` [compound 57], 100%. As to `O=[N+]([O-])c1cc([N+](=O)[O-])c(Nc2cccnc2)c(C(F)(F)F)c1` [compound 58], the mortality at 800 ppm in assay [4] came to 100%.

For the molecule `O=[N+]([O-])c1cc([N+](=O)[O-])c(Nc2ccncc2)c(C(F)(F)F)c1` [compound 59], in assay [4], the mortality at 800 ppm came out at 100%. As to `Cc1cnc(Nc2c([N+](=O)[O-])cc([N+](=O)[O-])cc2C(F)(F)F)c(Br)c1` [compound 64], the mortality at 800 ppm in assay [4] was determined as 100%. For the same molecule, the pest or weed control at 50 ppm in assay [1] came to 100%. The pest or weed control at 100 ppm in assay [2] amounted to 100%. In the case of `CCc1nc(Nc2c([N+](=O)[O-])cc([N+](=O)[O-])cc2C(F)(F)F)ccc1I` [compound 67], the mortality at 800 ppm in assay [4] turned out to be 100%. Besides, the pest or weed control at 50 ppm in assay [1] was determined as 100%. On to `Cc1nc(Nc2c([N+](=O)[O-])cc([N+](=O)[O-])cc2C(F)(F)F)c(Cl)cc1Cl` [compound 68], for which the mortality at 800 ppm in assay [4] was determined as 100%. Besides, in assay [1], the pest or weed control at 50 ppm stood at 100%. Besides, the pest or weed control at 100 ppm in assay [2] stood at 100%. As for `Cc1nc(Nc2c([N+](=O)[O-])cc([N+](=O)[O-])cc2C(F)(F)F)ccc1Cl` [compound 69], the pest or weed control at 50 ppm in assay [1] came out at 100%. Consider `O=[N+]([O-])c1cc([N+](=O)[O-])c(Nc2cc(Cl)cc(Cl)n2)c(C(F)(F)F)c1` [compound 72], for which the pest or weed control at 100 ppm in assay [2] is 100%. `Cc1cc(Cl)cc(Nc2c([N+](=O)[O-])cc([N+](=O)[O-])cc2C(F)(F)F)n1` [compound 73]: the pest or weed control at 100 ppm in assay [2] was found to be 87%. Take `COc1ccc(Nc2c([N+](=O)[O-])cc([N+](=O)[O-])cc2C(F)(F)F)nc1` [compound 74, N-(5-methoxy-2-pyridyl)-2,4-dinitro-6-trifluoromethylaniline]: the mortality at 800 ppm in assay [4] came to 100%. Further, the pest or weed control at 100 ppm in assay [2] was determined as 93%. `O=[N+]([O-])c1cc([N+](=O)[O-])c(Nc2ccc(Cl)nc2Cl)c(C(F)(F)F)c1` [compound 75]: in assay [1], the pest or weed control at 50 ppm is 100%. For the same molecule, the pest or weed control at 100 ppm in assay [2] turned out to be 100%. On to `O=[N+]([O-])c1cc([N+](=O)[O-])c(Nc2nc(Cl)ccc2C(F)(F)F)c(C(F)(F)F)c1` [compound 76], for which, in assay [1], the pest or weed control at 50 ppm was 100%. In addition, the pest or weed control at 100 ppm in assay [2] was 100%.

For `Cc1c(Cl)cnc(Nc2c([N+](=O)[O-])cc([N+](=O)[O-])cc2C(F)(F)F)c1Cl` [compound 78], the pest or weed control at 50 ppm in assay [1] amounted to 100%. The pest or weed control at 100 ppm in assay [2] worked out at 100%. `O=[N+]([O-])c1cc([N+](=O)[O-])c(Nc2c(Cl)cncc2Cl)c(C(F)(F)F)c1` [compound 79]: the pest or weed control at 100 ppm in assay [2] stood at 90%. As for `O=[N+]([O-])c1cc([N+](=O)[O-])c(Nc2ncc(C(F)(F)F)cc2Br)c(C(F)(F)F)c1` [compound 80], the pest or weed control at 50 ppm in assay [1] was 100%. The pest or weed control at 100 ppm in assay [2] was 100%. For `O=[N+]([O-])c1cc([N+](=O)[O-])c(Nc2nc(Cl)c(Br)cc2C(F)(F)F)c(C(F)(F)F)c1` [compound 82], the pest or weed control at 50 ppm in assay [1] is 100%. `O=[N+]([O-])c1cc([N+](=O)[O-])c(Nc2ncc(Cl)cc2C(F)(F)F)c(C(F)(F)F)c1` [compound 83]: the mortality at 800 ppm in assay [4] was found to be 100%. For the same molecule, the pest or weed control at 50 ppm in assay [1] is 100%. Regarding `O=[N+]([O-])c1cc([N+](=O)[O-])c(Nc2ncc(Br)cc2C(F)(F)F)c(C(F)(F)F)c1` [compound 84], the pest or weed control at 50 ppm in assay [1] worked out at 100%. With `COc1c([N+](=O)[O-])cc(C(F)(F)F)c(Nc2ncc(C(F)(F)F)cc2Cl)c1[N+](=O)[O-]` [compound 85, N-(3-chloro-5-trifluoromethyl-2-pyridyl)-2,4-dinitro-3-methoxy-6-trifluoromethylaniline], the pest or weed control at 50 ppm in assay [1] came out at 100%. The pest or weed control at 100 ppm in assay [2] is 100%. On to `COc1c([N+](=O)[O-])cc(C(F)(F)F)c(Nc2ncc(Cl)cc2Cl)c1[N+](=O)[O-]` [compound 86], for which, in assay [1], the pest or weed control at 50 ppm came out at 100%. Besides, the pest or weed control at 100 ppm in assay [2] amounted to 100%.

`Cc1cc(Nc2c([N+](=O)[O-])cc([N+](=O)[O-])cc2C(F)(F)F)ncc1Br` [compound 87]: in assay [4], the mortality at 800 ppm was 100%. Also, the pest or weed control at 50 ppm in assay [1] was 100%. In addition, the pest or weed control at 100 ppm in assay [2] is 100%. `O=[N+]([O-])c1cc(C(F)(F)F)cc(C(F)(F)F)c1Nc1ccc(C(F)(F)F)c(Cl)n1` [compound 92]: the pest or weed control at 50 ppm in assay [1] came out at 100%.
